Experimental data: patent US20100249408A1, “USE OF NOVEL COMPOUND HAVING AFFINITY FOR AMYLOID, AND PROCESS FOR PRODUCTION OF THE SAME” (NIHON MEDI-PHYSICS CO., LTD., priority 2007, published 2010)
Like-named read-outs stand apart in the source and are kept apart here.

Tests used:
[1] = biological target: intracerebral amyloid (aggregated Aβ1-40 injected into amygdaloid nucleus) (Homo sapiens, UniProt P05067); details: rat with Aβ1-40 amyloid suspension in one amygdaloid nucleus, tail vein, brain removed 60 minutes after injection
Method: The following experiment was carried out in order to examine whether amyloid in brain can be imaged by the compound of the present invention.
The rats were examined 1 day after the injection of the amyloid suspension and the phosphate buffered physiological saline solution (pH 7.4).
(4) Brain was removed 60 minutes after the injection to prepare a brain slice of 10 μm in thickness with a microtome (type: CM3050S, manufactured by LEICA).

[2] = SD rat; for Radioactive distribution per unit weight, Adrenal gland, Average / Radioactive distribution per unit weight, Blood, Average / Radioactive distribution per unit weight, Bone, Average / Radioactive distribution per unit weight, Brain, Average / Radioactive distribution per unit weight, Heart, Average / Radioactive distribution per unit weight, Kidney, Average / Radioactive distribution per unit weight, Large intestine, Average / Radioactive distribution per unit weight, Liver, Average / Radioactive distribution per unit weight, Lung, Average / Radioactive distribution per unit weight, Marrow, Average / Radioactive distribution per unit weight, Muscle, Average / Radioactive distribution per unit weight, Pancreas, Average / Radioactive distribution per unit weight, Small intestine, Average / Radioactive distribution per unit weight, Spleen, Average / Radioactive distribution per unit weight, Stomach, Average: tail vein
Method: A solution of Compound 6 in diethylether was diluted with a 10 mg/mL ascorbic acid-containing physiological saline solution and adjusted to 8-12 MBq/mL in radioactive concentration. 0.2 mL each of the prepared sample solution was administered under non-anesthesia into the tail vein of the above rat. The rats were sacrificed by bleeding from abdominal artery, and each organ shown in Table 11 was removed 5, 30, 60 and 180 minutes after the administration. […] Also, radioactivity of the whole body of the rat after removal of the organs (hereinafter referred to as rest of the whole body) was measured. Using these measurement results, radioactive distribution per unit weight of each organ (% ID/g) at the respective time points was calculated in accordance with the following formula (6).
Three animals were used for the experiment at the respective time points.
[formula] • R^T: Radioactivity of target organ (cpm) • R^S: Sum of radioactivity of all the organs (cpm) • R^R: Radioactivity of the rest of the whole body (cpm) • M^T: Mass of target organ (g)

[3] = Transferability into brain and clearance (Example I-16, Comparative Example I-7); assay type: in vivo, male Wistar rats; details: rats, intravenous injection, two animals
Method: Using Compound 6, a time course change of radioactive accumulation in brain of male Wistar rats (7-week old) was measured.
Also, radioactivity (hereinafter referred to as B in this Example) of 0.05 mL of a 1000-fold diluted solution of the injected solution was measured in the same manner as above. Using these measurement results, radioactive accumulation per unit weight of brain (% ID/g) at the respective time points was calculated in accordance with the following formula (3).

insulin amyloid = insulin amyloid (Homo sapiens, UniProt P01308); details: insulin amyloid 0.8 μg/mL, compound 0.2-20.2 pM, 22° C., 3 hours (FIG. 16)
Excerpt: (§1) Affinity of the present compounds with amyloid was examined by the following in vitro binding tests.

amylin amyloid = amylin amyloid (Homo sapiens, UniProt P10997); details: amylin amyloid 0.8 μg/mL, compound 0.2-20.2 pM, 22° C., 3 hours (FIG. 16)
Excerpt: as §1

[4] = biological target: β2-m-amyloid (aggregated β2-microglobulin) (Homo sapiens, UniProt P61769); details: β2-m-amyloid 0.8 μg/mL, compound 0.2-20.2 pM, 22° C., 3 hours (FIG. 16)
Excerpt: as §1

insulin amyloid, sequence (P01308 25-54 limits assumed): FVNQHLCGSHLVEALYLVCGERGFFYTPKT
insulin amyloid, sequence (P01308 90-110 limits assumed): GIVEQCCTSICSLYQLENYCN
β2-m-amyloid (aggregated β2-microglobulin), sequence (P61769 21-119): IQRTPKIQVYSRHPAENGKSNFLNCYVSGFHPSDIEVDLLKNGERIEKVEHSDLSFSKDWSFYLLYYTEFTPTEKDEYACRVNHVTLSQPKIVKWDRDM
intracerebral amyloid (aggregated Aβ1-40 injected into amygdaloid nucleus), sequence (P05067 672-711): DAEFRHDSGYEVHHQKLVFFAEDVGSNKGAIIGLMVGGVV
amylin amyloid, sequence (P10997 34-70 limits assumed): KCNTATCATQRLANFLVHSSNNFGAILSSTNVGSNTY

Compound: Oc1ccc(-c2cn3cc([123I])ccc3n2)cc1 [Compound 6, [^123I]-2-(4′-hydroxyphenyl)-6-iodoimidazo[1,2-a]pyridine]
- Accumulation of radioactivity at intracerebral amyloid (autoradiogram) [1]: accumulating on intracerebral amyloid
- Ratio (% ID/g at 5 minutes after the administration)/(% ID/g at 180 minutes after the administration) ([2]; bone): 4
- Ratio (% ID/g at 5 minutes after the administration)/(% ID/g at 180 minutes after the administration) ([2]; brain): 122
- Ratio (% ID/g at 5 minutes after the administration)/(% ID/g at 180 minutes after the administration) ([2]; heart): 13
- Ratio (% ID/g at 5 minutes after the administration)/(% ID/g at 180 minutes after the administration) ([2]; lung): 7
- Ratio (% ID/g at 5 minutes after the administration)/(% ID/g at 180 minutes after the administration) ([2]; pancreas): 14
- Radioactive distribution per unit weight, Adrenal gland, Average ([2]; 5 min. after administration): 4.648 % ID/g
- Radioactive distribution per unit weight, Adrenal gland, Average ([2]; 30 min. after administration): 0.642 % ID/g
- Radioactive distribution per unit weight, Adrenal gland, Average ([2]; 60 min. after administration): 0.260 % ID/g
- Radioactive distribution per unit weight, Adrenal gland, Average ([2]; 180 min. after administration): 0.020 % ID/g
- Radioactive distribution per unit weight, Blood, Average ([2]; 5 min. after administration): 0.285 % ID/g
- Radioactive distribution per unit weight, Blood, Average ([2]; 30 min. after administration): 0.174 % ID/g
- Radioactive distribution per unit weight, Blood, Average ([2]; 60 min. after administration): 0.122 % ID/g
- Radioactive distribution per unit weight, Blood, Average ([2]; 180 min. after administration): 0.109 % ID/g
- Radioactive distribution per unit weight, Bone, Average ([2]; 5 min. after administration): 0.222 % ID/g
- Radioactive distribution per unit weight, Bone, Average ([2]; 30 min. after administration): 0.088 % ID/g
- Radioactive distribution per unit weight, Bone, Average ([2]; 60 min. after administration): 0.058 % ID/g
- Radioactive distribution per unit weight, Bone, Average ([2]; 180 min. after administration): 0.053 % ID/g
- Radioactive distribution per unit weight, Brain, Average ([2]; 5 min. after administration): 0.721 % ID/g
- Radioactive distribution per unit weight, Brain, Average ([2]; 30 min. after administration): 0.124 % ID/g
- Radioactive distribution per unit weight, Brain, Average ([2]; 60 min. after administration): 0.030 % ID/g
- Radioactive distribution per unit weight, Brain, Average ([2]; 180 min. after administration): 0.006 % ID/g
- Radioactive distribution per unit weight, Heart, Average ([2]; 5 min. after administration): 0.619 % ID/g
- Radioactive distribution per unit weight, Heart, Average ([2]; 30 min. after administration): 0.147 % ID/g
- Radioactive distribution per unit weight, Heart, Average ([2]; 60 min. after administration): 0.063 % ID/g
- Radioactive distribution per unit weight, Heart, Average ([2]; 180 min. after administration): 0.047 % ID/g
- Radioactive distribution per unit weight, Kidney, Average ([2]; 5 min. after administration): 0.999 % ID/g
- Radioactive distribution per unit weight, Kidney, Average ([2]; 30 min. after administration): 0.540 % ID/g
- Radioactive distribution per unit weight, Kidney, Average ([2]; 60 min. after administration): 0.244 % ID/g
- Radioactive distribution per unit weight, Kidney, Average ([2]; 180 min. after administration): 0.108 % ID/g
- Radioactive distribution per unit weight, Large intestine, Average ([2]; 5 min. after administration): 0.116 % ID/g
- Radioactive distribution per unit weight, Large intestine, Average ([2]; 30 min. after administration): 0.070 % ID/g
- Radioactive distribution per unit weight, Large intestine, Average ([2]; 60 min. after administration): 0.066 % ID/g
- Radioactive distribution per unit weight, Large intestine, Average ([2]; 180 min. after administration): 7.296 % ID/g
- Radioactive distribution per unit weight, Liver, Average ([2]; 5 min. after administration): 2.008 % ID/g
- Radioactive distribution per unit weight, Liver, Average ([2]; 30 min. after administration): 0.509 % ID/g
- Radioactive distribution per unit weight, Liver, Average ([2]; 60 min. after administration): 0.181 % ID/g
- Radioactive distribution per unit weight, Liver, Average ([2]; 180 min. after administration): 0.083 % ID/g
- Radioactive distribution per unit weight, Lung, Average ([2]; 5 min. after administration): 0.657 % ID/g
- Radioactive distribution per unit weight, Lung, Average ([2]; 30 min. after administration): 0.209 % ID/g
- Radioactive distribution per unit weight, Lung, Average ([2]; 60 min. after administration): 0.120 % ID/g
- Radioactive distribution per unit weight, Lung, Average ([2]; 180 min. after administration): 0.089 % ID/g
- Radioactive distribution per unit weight, Marrow, Average ([2]; 5 min. after administration): 0.713 % ID/g
- Radioactive distribution per unit weight, Marrow, Average ([2]; 30 min. after administration): 0.194 % ID/g
- Radioactive distribution per unit weight, Marrow, Average ([2]; 60 min. after administration): 0.000 % ID/g
- Radioactive distribution per unit weight, Marrow, Average ([2]; 180 min. after administration): 0.030 % ID/g
- Radioactive distribution per unit weight, Muscle, Average ([2]; 5 min. after administration): 0.381 % ID/g
- Radioactive distribution per unit weight, Muscle, Average ([2]; 30 min. after administration): 0.078 % ID/g
- Radioactive distribution per unit weight, Muscle, Average ([2]; 60 min. after administration): 0.034 % ID/g
- Radioactive distribution per unit weight, Muscle, Average ([2]; 180 min. after administration): 0.022 % ID/g
- Radioactive distribution per unit weight, Pancreas, Average ([2]; 5 min. after administration): 0.846 % ID/g
- Radioactive distribution per unit weight, Pancreas, Average ([2]; 30 min. after administration): 0.207 % ID/g
- Radioactive distribution per unit weight, Pancreas, Average ([2]; 60 min. after administration): 0.084 % ID/g
- Radioactive distribution per unit weight, Pancreas, Average ([2]; 180 min. after administration): 0.060 % ID/g
- Radioactive distribution per unit weight, Small intestine, Average ([2]; 5 min. after administration): 1.078 % ID/g
- Radioactive distribution per unit weight, Small intestine, Average ([2]; 30 min. after administration): 6.335 % ID/g
- Radioactive distribution per unit weight, Small intestine, Average ([2]; 60 min. after administration): 8.207 % ID/g
- Radioactive distribution per unit weight, Small intestine, Average ([2]; 180 min. after administration): 1.408 % ID/g
- Radioactive distribution per unit weight, Spleen, Average ([2]; 5 min. after administration): 0.462 % ID/g
- Radioactive distribution per unit weight, Spleen, Average ([2]; 30 min. after administration): 0.140 % ID/g
- Radioactive distribution per unit weight, Spleen, Average ([2]; 60 min. after administration): 0.075 % ID/g
- Radioactive distribution per unit weight, Spleen, Average ([2]; 180 min. after administration): 0.072 % ID/g
- Radioactive distribution per unit weight, Stomach, Average ([2]; 5 min. after administration): 0.360 % ID/g
- Radioactive distribution per unit weight, Stomach, Average ([2]; 30 min. after administration): 1.025 % ID/g
- Radioactive distribution per unit weight, Stomach, Average ([2]; 60 min. after administration): 1.043 % ID/g
- Radioactive distribution per unit weight, Stomach, Average ([2]; 180 min. after administration): 1.081 % ID/g
- Radioactive accumulation in brain per unit weight ([3]; after 2 min.): 0.96 % ID/g
- Radioactive accumulation in brain per unit weight ([3]; after 5 min.): 0.69 % ID/g
- Radioactive accumulation in brain per unit weight ([3]; after 30 min.): 0.16 % ID/g
- Radioactive accumulation in brain per unit weight ([3]; after 60 min.): 0.04 % ID/g
- Radioactive count on glass fiber filter versus group without addition of amyloid (insulin amyloid): radioactivity was all high compared to the group without addition of amyloid suspension
- Radioactive count on glass fiber filter versus group without addition of amyloid (amylin amyloid): radioactivity was all high compared to the group without addition of amyloid suspension
- Radioactive count on glass fiber filter versus group without addition of amyloid [4]: radioactivity was all high compared to the group without addition of amyloid suspension
